US20070004689A1, “Antiangiogenic agents” (priority 2004, published 2007)
Read-outs that look alike come from different tables or passages of the source.

Tests used:
[1] = test system: MDA-MB-231 a human breast carcinoma; assay: BrdU proliferation assay, MDA-MB-231 (anti-tumor activity); format: cell-based
Source text: (§1) Cell Culture: Human umbilical vein endothelial cells (HUVEC) were obtained from Clonetics (San Diego, Calif.), MCF7 cells were the kind gift of Dr. Dorraya El Ashry (University of Michigan), MDA-MB-231 a human breast carcinoma, PC3 a human prostate carcinoma, and U87-MG a human glioma, cell lines were obtained from ATCC. HUVEC cultures were maintained for up to 5 passages in EGM containing bovine brain extract (Clonetics) and 1× antibiotic-antimycotic (BioWhittaker, Walkersville, Md.). MDA-MB-231, PC3, U87-MG and MCF-7 cells were maintained in DMEM/F12 (1:1) containing 10% (v/v) fetal bovine serum (Hyclone Laboratories, Logan, Utah) and 1× antibiotic-antimycotic. MCF7 cells were used between passage 60 and passage 100.
(§2) Proliferation Assays: Proliferation was measured by cell counting using a Coulter Zl cell counter (Coulter Corporation, Hialeah, Fla.) or by evaluation of DNA synthesis. Each condition was done in triplicate and experiments were repeated at least twice. To determine estrogenicity of the analogs, MCF7 estrogen-dependent proliferation assays were performed. The cells were seeded in complete media at 10,000 cells/well in a 24 well plate after allowing the cells to adhere overnight and the seeding density was determined by cell counts. Cells were washed with PBS (37° C.) and starved by placing them in IMEM-phenol red free media containing 2% charcoal-dextran fetal bovine-stripped serum (Valley Biomedical, Winchester, Va.) and 1× antibiotic-antimycotic. After 3 days of starvation, cells were treated with or without increasing concentrations of compounds, replacing the media every 2-3 days and counted after 7 days of treatment. In order to ensure that only the added test compounds stimulated growth, experiments were performed only with cell cultures that duplicated less than once during the starvation period. Values are expressed as MCF7 stimulation index (SI) relative to 2ME2 (defined as 1.00). A value less than 1.00 indicates reduced estrogenicity. Estradiol is used as a positive control.
(§3) To determine anti-tumor and anti-angiogenic activities of the analogs, proliferation assays were performed by evaluating detection of DNA synthesis by use of the 5-bromo-2′-deoxyuridine (BrdU) cell proliferation colorimetric ELISA kit from Roche (Indianapolis, Ind.) according to the manufacturer's instructions. For BrdU assays, the cells were seeded at 1,000 cells/well (MDA-MB-231, anti-tumor activity) or 3,000 cells/well (HUVEC, anti-angiogenic activity) in a 96 well plate, allowed to attach overnight and then exposed to the compound for 48 h. IC50 value is the concentration at which cell proliferation is inhibited by 50%.
(§4) Antiproliferative activity of the NCEs were assessed in tumor cell lines (MDA-MB-231 a breast carcinoma, PC3 a prostate carcinoma and U87-MG a glioma) and endothelial cells (HUVEC).

U87-MG a human glioma = assay: Proliferation assay, U87-MG; format: cell-based
Source text: as §1, §2, §3, §4

[2] = test system: PC3 a human prostate carcinoma; assay: Proliferation assay, PC3; format: cell-based
Source text: as §1, §2, §3, §4

[3] = test system: Human umbilical vein endothelial cells (HUVEC); assay: BrdU proliferation assay, HUVEC (anti-angiogenic activity); format: cell-based
Source text: as §1, §2, §3, §4

MCF7 cells = assay: MCF7 estrogen-dependent proliferation assay (estrogenicity); format: cell-based, human; settings: stimulation index, 2ME2 defined as 1.00; less than 1.00 = reduced estrogenicity; 7 days of treatment
Source text: as §1
as §2, with “[…].” for “Values are expressed as MCF7 stimulation index (SI) relative to 2ME2 (defined as 1.00). A value less than 1.00 indicates reduced estrogenicity.”

[4] = test system: Rat hepatocyte suspensions; assay: Hepatocyte incubations, rat; format: in vitro ADME; settings: rat hepatocytes, NR = no reaction
Description: (§5) Hepatocyte Incubations: An in vitro measure of metabolism using cells from rat and human liver. Rat and human hepatocyte suspensions (10^6 cells per mL of serum-free (H)CL15 culture medium) were incubated with 2 concentrations (1 and 5 μM) of each of the compounds. Stock solutions were prepared in DMSO, and were further diluted in culture medium to the final test concentrations. 7-Ethoxycoumarin (7-EC) were included as a positive control substrate for P450. A 0.1 M 7-EC stock solution was prepared in DMSO, and the final assay concentration was 100 μM. The reactions were initiated by the addition of the substrates, incubated at 37° C., and terminated after 0, 60 and 120 minutes by addition of acetonitrile. The positive 7-EC control reactions were stopped with perchloric acid or ZnSO4 and BaOH after 60-minutes of incubation. The reaction mixture was centrifuged to remove the cell debris, and the supernatant was used for subsequent analysis by HPLC/LC-MS. If necessary, the supernatants were flash frozen in liquid N2 and stored at −70° C. until further analysis. HPLC was used to analyze product formation from 7-EC. Analyses to determine the concentration of the test compounds were carried out using reverse phase HPLC with tandem mass spectrometric detection (LC-MS/MS). Samples were analyzed to measure the disappearance of parent compound over time. The rate of metabolism was estimated by fitting a curve to the data for each concentration against time using GraphPad Prism Version 3.02 software.

[5] = test system: human hepatocyte suspensions; assay: Hepatocyte incubations, human; format: in vitro ADME; settings: human hepatocytes, NR = no reaction
Description: as §5

[6] = Rat pharmacokinetics after oral delivery of 10 mg/kg, cyclodextrin formulation; format: in vivo; settings: oral 10 mg/kg, female Sprague Dawley rats
Description: Pharmokinetics of the NCEs were assessed by LC/MS after oral delivery of 10 mg/kg to female Sprague Dawley rats using a cyclodextrin formulation.

[7] = Example 2, Table VII, read-out: IC50 value (μM) MDA-MB-231
[8] = Example 2, Table VII, read-out: IC50 value (μM) U87-MG
[9] = Example 2, Table VII, read-out: IC50 value (μM) PC3
[10] = Example 2, Table VII, read-out: IC50 value (μM) HUVEC

| SMILES | IC50 [1, 7] | IC50 (U87-MG a human glioma; [8]) | IC50 [2, 9] | IC50 [3, 10] | AUCall [6] | Cmax [6] | Tmax [6] | T½ [6] | other results |
| --- | --- | --- | --- | --- | --- | --- | --- | --- | --- |
| COc1cc2c(cc1O)CC[C@@H]1[C@@H]2CC[C@]2(C)[C@@H](O)CC[C@@H]12 [Compound 1, 2-Methoxyestradiol, reference compound] | – | – | – | – | – | – | – | – | IC50 ([1]; Homo sapiens, MDA-MB-231, BrdU DNA synthesis, 48 h exposure, read-out: MDA-MB-231 (IC50 μM)): 0.69 ± 0.14 µM; IC50 (U87-MG a human glioma; Homo sapiens, U-87 MG, proliferation, read-out: U87-MG (IC50 μM)): 1.48 ± 0.62 µM; IC50 ([2]; Homo sapiens, proliferation, read-out: PC3 (IC50 μM)): 1.08 ± 0.5 µM; IC50 ([3]; Homo sapiens, HUVEC, BrdU DNA synthesis, 48 h exposure, read-out: HUVEC (IC50 μM)): 0.68 ± 0.15 µM; MCF7 SI Relative to 2ME2 (MCF7 cells): 1.00; Hepatocyte Rat 60/120′ (1 uM): 60′ ([4]; 1 uM, 60 minutes): 0/0; Hepatocyte Rat 60/120′ (1 uM): 120′ ([4]; 1 uM, 120 minutes): 0/0; Hepatocyte Rat 60/120′ (5 uM): 60′ ([4]; 5 uM, 60 minutes, unit assumed): 39%; Hepatocyte Rat 60/120′ (5 uM): 120′ ([4]; 5 uM, 120 minutes, unit assumed): 24%; Hepatocyte Human 60/120′ (1 uM): 60′ ([5]; 1 uM, 60 minutes): 0/0; Hepatocyte Human 60/120′ (1 uM): 120′ ([5]; 1 uM, 120 minutes): 0/0; Hepatocyte Human 60/120′ (5 uM): 60′ ([5]; 5 uM, 60 minutes): 20; Hepatocyte Human 60/120′ (5 uM): 120′ ([5]; 5 uM, 120 minutes): 0 |
| COc1cc2c(cc1C(N)=O)CC[C@@H]1[C@@H]2CC[C@@]2(C)[C@H]1CCC21OCCO1 [ENMD-1565, 17-(1,3-dioxolane)-2-methoxyestra-1,3,5(10)-triene-3 carboxamide] | 1.21 ± 0.47 µM | 1.27 ± 0.44 µM | 1.91 ± 0.36 µM | 0.91 µM | 4657 ng·h/mL | 1379 ng/mL | 60 min | 97.8 min | – |
| COc1cc2c(cc1C(N)=O)CC[C@@H]1[C@@H]2CC[C@]2(C)[C@@H](OC)CC[C@@H]12 [ENMD-1756, 2,17β-(bismethoxy)estra-1,3,5(10)-triene-3-carboxamide] | 0.89 ± 0.21 µM | 0.71 ± 0.09 µM | 1.14 ± 0.45 µM | 0.62 µM | 1442 ng·h/mL | 665 ng/mL | 30 min | 53.4 min | – |
